In assay [1] the target is T1, μ-opioid receptor encoded by MOR-1 (inhibition of adenylyl cyclase) (Rattus norvegicus, UniProt P33535, V245I).
T1 construct: A 1.4-kilobase HindIII fragment encompassing the open reading frame from the cDNA encoding MOR-1 was cloned; expressed in transfected cells; host or cells: COS-7
Briefly: Forskolin-stimulated cAMP levels in COS-7 cells expressing MOR-1. In kind it is cell-based. The settings on record: 100 nM DAGO, 10 μM forskolin, transfected cells, p<0.05.

The target in assay [2] is T2, mu opioid receptor (Rattus norvegicus, UniProt P33535, V245I).
T2 construct: expressed in transfected cells
T2 sequence (P33535 whole entry V245I): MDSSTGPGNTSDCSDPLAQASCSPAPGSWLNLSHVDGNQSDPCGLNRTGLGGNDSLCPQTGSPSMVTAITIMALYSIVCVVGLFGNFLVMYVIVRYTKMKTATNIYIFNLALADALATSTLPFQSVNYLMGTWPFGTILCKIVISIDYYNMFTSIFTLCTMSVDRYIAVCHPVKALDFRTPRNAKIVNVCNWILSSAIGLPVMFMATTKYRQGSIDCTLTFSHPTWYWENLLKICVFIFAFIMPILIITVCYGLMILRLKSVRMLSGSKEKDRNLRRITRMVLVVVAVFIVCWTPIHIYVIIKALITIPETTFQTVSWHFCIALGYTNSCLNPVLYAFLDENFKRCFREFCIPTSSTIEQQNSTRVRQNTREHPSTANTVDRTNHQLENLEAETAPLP
Type of assay: biochemical. The settings on record: 10 μM DAMGO.

For assay [3], the target named is T3, human μ opioid receptor coupled to G protein-activated K+ channel (Homo sapiens, UniProt P35372).
T3 construct: Messenger RNAs encoding both proteins (Chen and Yu, 1994) were generated by in vitro transcription and injected into Xenopus oocytes; expressed in transfected cells; host or cells: Xenopus laevis oocytes (mRNA injection)
T3 sequence (P35372 whole entry): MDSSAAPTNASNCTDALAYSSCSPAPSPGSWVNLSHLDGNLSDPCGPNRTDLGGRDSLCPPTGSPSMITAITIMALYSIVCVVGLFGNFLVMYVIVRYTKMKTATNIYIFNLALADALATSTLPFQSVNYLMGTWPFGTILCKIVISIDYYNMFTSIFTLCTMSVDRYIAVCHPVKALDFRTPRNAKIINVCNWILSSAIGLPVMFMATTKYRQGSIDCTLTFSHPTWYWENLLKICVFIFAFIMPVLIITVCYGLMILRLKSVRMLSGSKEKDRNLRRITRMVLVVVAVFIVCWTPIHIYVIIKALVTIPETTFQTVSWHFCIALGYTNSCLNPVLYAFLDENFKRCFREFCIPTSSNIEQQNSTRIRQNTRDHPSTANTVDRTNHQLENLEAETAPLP
Type of assay: cell-based.

Assay [4] concerns the target T4, rat μ opioid receptor (Rattus norvegicus, UniProt P33535, V245I).
T4 construct: A plasmid containing a 1.4 kb cDNA for the rat μ opioid receptor in a mammalian expression vector pRc/CMV has been described; expressed in transfected cells
Kind of assay: Saturation binding of [3H]DAMGO, membranes of CHO cells stably expressing rat μ opioid receptor (Example VII).

Assay [5] addresses T5, rat μ opioid receptor coupled to G protein-activated K+ channel (Rattus norvegicus, UniProt P33535, V245I).
T5 construct: A cDNA clone, MOR-1, containing the protein coding region of a rat μ opioid receptor has been described; expressed in transfected cells; host or cells: Xenopus oocytes (mRNA injection)
In kind it is cell-based.

Assay [6] concerns the target T6, novel member of the opioid receptor gene family (SEQ ID NO: 17) (Rattus norvegicus, UniProt P35370).
T6 construct: mRNA of this clone was synthesized by in vitro transcription and coinjected into Xenopus oocytes; expressed in transfected cells; host or cells: Xenopus oocytes (mRNA injection)
In kind it is cell-based.

Assay [7] has as its target T7, mu opioid receptor / voltage-activated calcium channel (Rattus norvegicus, UniProt P33535, V245I).
T7 construct: one cDNA clone contained an open reading frame of 1194 bp, encoding a protein of 398 amino acids; expressed in transfected cells; host or cells: Xenopus oocytes (plasmid microinjection)
Kind of assay: Barium currents in Xenopus oocytes coexpressing voltage-activated calcium channel and mu opioid receptor. In kind it is cell-based. The settings on record: 1 μM DAMGO for 5 min, entire activation voltage range.

In assay [8] the target is human μ opioid receptor (Homo sapiens, UniProt P35372).
Chain of human μ opioid receptor (P35372 whole entry): as above
In assay [9] the target is T8, rat μ opioid receptor (inhibition of adenylyl cyclase) (Rattus norvegicus, UniProt P33535, V245I).
T8 sequence (P33535 whole entry V245I): as the sequence (P33535 whole entry V245I) above
Assay [10] concerns the target cloned rat μ receptor (Rattus norvegicus, UniProt P33535, V245I). The settings on record: previously reported; cited from earlier work.
Assay [11] has as its target T8, rat μ opioid receptor (inhibition of adenylyl cyclase). Briefly: Cyclic AMP assay in transfected CHO cells, naive or chronically morphine-treated. The settings on record: for DAMGO/control (forskolin + DAMGO vs forskolin only cAMP): 1 μM DAMGO, 2 μM forskolin; for Intracellular cAMP level, Forskolin + DAMGO: forskolin 2 μM, DAMGO 1 μM. On the technique in general: Changes in cAMP serve as a functional read-out for many G protein-coupled receptors.

Assay [12] deals with cloned human μ receptor (Homo sapiens, UniProt P35372). Kind of assay: Saturation binding of [3H]DAMGO, COS-7 membranes expressing cloned human μ receptor (Example XII). More on the design: the cDNA containing the open reading frame of the receptor was cloned downstream of the human cytomegalovirus promoter in the mammalian expression vector pcDNA3; expressed in transfected cells; host or cells: COS-7 (transient).
Chain of cloned human μ receptor (P35372 whole entry): as the sequence (P35372 whole entry) above

Setting [13] is: cells treated with 1 μM morphine for 24 hours.

SMILES strings stand for the structures.

As usually defined, the inhibition is the share of the control response that was lost under treatment. Read a high inhibition as strong suppression.

T7 sequence (P33535 whole entry V245I): as the sequence (P33535 whole entry V245I) above
T1 sequence (P33535 whole entry V245I, the tested form may be a part): as the sequence (P33535 whole entry V245I) above
T4 sequence (P33535 whole entry V245I): as above
T5 sequence (P33535 whole entry V245I): as above
Chain of cloned rat μ receptor (P33535 whole entry V245I): as above
T6 sequence (P35370 whole entry): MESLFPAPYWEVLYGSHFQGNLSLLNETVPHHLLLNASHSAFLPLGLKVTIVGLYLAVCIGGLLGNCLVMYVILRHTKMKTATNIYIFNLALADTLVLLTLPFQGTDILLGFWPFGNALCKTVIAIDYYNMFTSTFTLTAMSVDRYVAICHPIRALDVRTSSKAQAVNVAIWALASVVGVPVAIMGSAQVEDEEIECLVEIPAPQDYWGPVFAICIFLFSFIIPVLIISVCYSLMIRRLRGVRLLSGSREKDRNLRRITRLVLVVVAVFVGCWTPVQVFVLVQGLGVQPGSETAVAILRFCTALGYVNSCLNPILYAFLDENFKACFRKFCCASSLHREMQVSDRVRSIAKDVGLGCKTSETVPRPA

For the compound `C[C@@H](NC(=O)[C@@H](N)Cc1ccc(O)cc1)C(=O)NCC(=O)N(C)[C@@H](Cc1ccccc1)C(=O)NCCO` [DAMGO, [D-Ala^2, N-Me-Phe^4, Gly-ol^5]-enkephalin], the “reduction of cAMP levels from control” value in assay [1] came out at 18.1±2.5%. Also, the “increase of GTPase activity” value in [2] is on record as 30%. In addition, the “membrane current upon receptor activation (in words)” value in assay [3] is “an inward current was observed”. Moreover, the Bmax in assay [4] is given as around 630 fmol/mg membrane protein; in assay [8] it was 381±25 fmol/mg of membrane protein; in [10] it was 444 fmol/mg protein; in [12] it was 232 fmol/mg. Moreover, the “membrane current upon DAMGO exposure (in words)” value in [5] is recorded as “produced an inward membrane current”. Moreover, in assay [6], the “induction of potassium conductance (in words)” value was “no potassium conductance was induced”. In addition, the “reduction in barium currents through the calcium channel” value in assay [7] is “over 80%”. The inhibition in assay [9] was around 60%. Also, in [11], the “effect on intracellular cAMP level in non-transfected parental CHO cells” value is “had no effect”. In addition, the “DAMGO/control (forskolin + DAMGO vs forskolin only cAMP)” value in [11] (setting [13]) came out at 42.4%; in assay [11] (naive cells), 71.9%. In addition, the “Intracellular cAMP level, Forskolin + DAMGO” value in [11] (setting [13]) is reported as 38.9 ± 1.4 fmol/1 × 10^3 cells; in assay [11] (naive cells), 25.6 ± 0.3 fmol/1 × 10^3 cells.

The values above are taken from patent publication US7097988B1 (ADVANCED RESEARCH AND TECHNOLOGY INSTITUTE, dated 2006).
